Source: patent US7122548B2, “Triazolotriazine compounds and uses thereof” (Sugen, Inc., priority 2003, dated 2006)

molecular target: T1, c-MET (Homo sapiens, UniProt P08581); assay: Met Transphosphorylation Assay (ELISA, poly(Glu,Tyr) 4:1 substrate); assay type: biochemical; conditions: purified GST fusion protein containing the Met kinase domain
T1 construct: Purified GST fusion protein containing the Met kinase domain, Sugen, Inc
Method: Met Transphosphorylation Assay
This assay is used to measure phosphotyrosine levels on a poly(glutamic acid:tyrosine (4:1)) substrate as a means for identifying agonists/antagonists of met transphosphorylation of the substrate.
6. Purified GST fusion protein containing the Met kinase domain, Sugen, Inc.
8. 10% aqueous (MilliQue H2O) DMSO.
10. 2× Kinase Dilution Buffer: for 100 ml, mix 10 mL 1M HEPES at pH 7.5 with 0.4 mL 5% BSA/PBS, 0.2 mL 0.1 M sodium orthovanadate and 1 mL 5M sodium chloride in 88.4 mL dH2O.
11. 4× ATP Reaction Mixture: for 10 mL, mix 0.4 mL 1 M manganese chloride and 0.02 mL 0.1 M ATP in 9.56 mL dH2O.
12. 4× Negative Controls Mixture: for 10 mL, mix 0.4 mL 1 M manganese chloride in 9.6 mL dH2O.
15. Antibody Dilution Buffer: for 100 mL, mix 10 mL 5% BSA/PBS, 0.5 mL 5% Carnation Instant Milk® in PBS and 0.1 mL 0.1 M sodium orthovanadate in 88.4 mL TBST.
16. Rabbit polyclonal antophosphotyrosine antibody, Sugen, Inc.
17. Goat anti-rabbit horseradish peroxidase conjugated antibody, Biosource, Inc.
18. ABTS Solution: for 1 L, mix 19.21 g citric acid, 35.49 g Na2HPO4 and 500 mg ABTS with sufficient dH2O to make 1 L.
19. ABTS/H2O2: mix 15 mL ABST solution with 2pL H2O2 five minutes before use.
1. Coat ELISA plates with 2 μg Poly(Glu—Tyr) in 100 μL PBS, store overnight at 4° C.
2. Block plate with 150 μL of 5% BSA/PBS for 60 min.
3. Wash plate twice with PBS, once with 50 mM Hepes buffer pH 7.4.
4. Add 50 μl of the diluted kinase to all wells. (Purified kinase is diluted with Kinase Dilution Buffer. Final concentration should be 10 ng/well.)
5. Add 25 μL of the test compound (in 4% DMSO) or DMSO alone (4% in dH2O) for controls to plate.
6. Incubate the kinase/compound mixture for 15 minutes.
7. Add 25 μL of 40 mM MnCl2 to the negative control wells.
8. Add 25 μL ATP/MnCl2 mixture to the all other wells (except the negative controls). Incubate for 5 min.
9. Add 25 μL 500 mM EDTA to stop reaction.
10. Wash plate 3× with TBST.
11. Add 100 μL rabbit polyclonal anti-Ptyr diluted 1:10,000 in Antibody Dilution Buffer to each well. Incubate, with shaking, at room temperature for one hour.
12. Wash plate 3× with TBST.
13. […] Add 100 μL per well and incubate at room temperature, with shaking, for one hour.
14. Wash plate 1× with PBS.
15. Add 100 μl of ABTS/H2O2 solution to each well.
16. If necessary, stop the development reaction with the addition of 100 μl of 0.2M HCl per well.
Met Transphosphorylation Assay Results

T1 sequence (P08581 1078-1345 limits assumed): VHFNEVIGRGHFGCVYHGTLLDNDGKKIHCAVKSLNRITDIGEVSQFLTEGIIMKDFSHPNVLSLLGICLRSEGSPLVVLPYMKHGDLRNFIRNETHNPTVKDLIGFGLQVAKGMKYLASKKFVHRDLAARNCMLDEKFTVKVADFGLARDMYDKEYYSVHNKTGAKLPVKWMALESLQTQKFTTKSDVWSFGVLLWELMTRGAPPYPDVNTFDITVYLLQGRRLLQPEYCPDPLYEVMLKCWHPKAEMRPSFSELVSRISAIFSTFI

Row | IC50 | SMILES
1 | 4 nM | Oc1ccc(Cc2nnc3ncc(-c4cccs4)nn23)cc1 [Example 2, 4-(6-Thiophen-2-yl-[1,2,4]triazolo[4,3-b][1,2,4]triazin-3-ylmethyl)-phenol]
2 | 50 nM | Fc1ccc(Cc2nnc3ncc(-c4ccccc4)nn23)cc1 [Example 4, 3-(4-Fluoro-benzyl)-6-phenyl-[1,2,4]triazolo[4,3-b][1,2,4]triazine]
3 | 13 nM | Fc1ccc(Cc2nnc3ncc(-c4cccs4)nn23)cc1 [Example 5, 3-(4-Fluoro-benzyl)-6-thiophen-2-yl-[1,2,4]triazolo[4,3-b][1,2,4]triazine]
4 | 45 nM | Fc1ccc(Cc2nnc3ncc(-c4ccc(Br)cc4)nn23)cc1 [Example 6, 6-(4-Bromo-phenyl)-3-(4-fluoro-benzyl)-[1,2,4]triazolo[4,3-b][1,2,4]triazine]
5 | 56 nM | Oc1ccc(Cc2nnc3nccnn23)cc1 [Example 7, 4-[1,2,4]Triazolo[4,3-b][1,2,4]triazin-3-ylmethyl-phenol]
6 | > 20000 nM | Cc1nc2nnc(Cc3ccc(O)cc3)n2nc1C [Example 8, 4-(6,7-Dimethyl-[1,2,4]triazolo[4,3-b][1,2,4]triazin-3-ylmethyl)-phenol]
7 | 830 nM | Cc1nn2c(Cc3ccc(O)cc3)nnc2nc1N [Example 9, 4-(7-Amino-6-methyl-[1,2,4]triazolo[4,3-b][1,2,4]triazin-3-ylmethyl)-phenol]
